Test results as given in ChEMBL document CHEMBL1201862, “PubChem BioAssay data set” (2004).
Active and inactive are the calls of the source.

Assays:
[1] = A cytotoxicity screen of small molecule inhibitors of the PhoP region in Salmonella typhi identified in the primary screen. [Related pubchem assays: 1850, 1864, 1985 ]; type: functional
[2] = target: Prothrombin (Homo sapiens, UniProt P00734); assay: Thrombin 1536 HTS Dose Response Confirmation. [Related pubchem assays: 1046 (Thrombin 1536 HTS; hits were confirmed in this assay)]; type: functional
[3] = target: T1, Polyadenylate-binding protein 1 (Homo sapiens, UniProt P11940); assay: PABP1 MLLE–PAM2 interaction inhibitors, dose response, miRNA deadenylation inhibitor project, biochemical, fluorescence polarization, Cy5-PAM2 peptide, secondary (AID 602260); type: functional; conditions: read-out: IC50_Mean
[4] = target: T1, Polyadenylate-binding protein 1; assay: PABP1 MLLE–PAM2 binding inhibitor potency, dose response, biochemical, fluorescence polarization, FITC-PAM2 peptide (AID 602259); type: functional; conditions: read-out: IC50_Mean
[5] = target: Fructose-bisphosphate aldolase (Mycobacterium tuberculosis, UniProt P9WQA3); assay: Fluorescence-based biochemical high throughput dose response assay for inhibitors of the fructose-bisphosphate aldolase (FBA) of M. tuberculosis.; type: functional
[6] = HEK293T cell cytotoxicity, dose response, cytotoxicity control for HIV Vif inhibitor project, cherry-picks (AID 652208); type: functional, cell-based
[7] = target: Paired box protein Pax-8 (Homo sapiens, UniProt Q06710); assay: inhibitors of PAX8-driven TPO luciferase reporter, dose response, RMG-I cells, cherry-pick (AID 687027); type: functional, cell-based;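 further: luciferase reporter driven by Pax8 target thyroperoxidase promoter measured by SteadyGlo luminescence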
[8] = PAX2 cell-based inhibition, dose response, selectivity assay for PAX8 inhibitor project, plate reader, dry powder samples (AID 743048); type: functional;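 further: HEK293 cells carrying a WT1 promoter luciferase reporter driven by expressed Pax2; potency is for inhibition of Pax2 driven reporter signal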
[9] = cytotoxicity in COV362 ovarian cancer cells, dose response, cytotoxicity control for PAX8 inhibitor project, cell-based, plate reader, dry powder, SA12 (AID 743144); type: functional
[10] = NIH:OVCAR-3 ovarian cancer cell cytotoxicity, dose response, PAX8 inhibitor project, plate reader, dry powder samples (AID 743044); type: functional, cell-based
[11] = PAX5 activity inhibitors, dose response, selectivity assay for PAX8 inhibitor project, cell-based, plate reader, dry powder samples (AID 743047); type: functional;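 further: HEK293 cells carrying a Pax5 driven CD19 promoter luciferase reporter; potency of inhibitors that lower reporter luminescence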
[12] = IGROV1 ovarian cancer cell cytotoxicity, dose response, PAX8 inhibitor project, plate reader, dry powder samples (AID 743043); type: functional, cell-based; conditions: IGROV-1
[13] = cytotoxicity in COV434 cells, dose response, cytotoxicity control for PAX8 inhibitor project, cell-based, plate reader, dry powder, SA7 (AID 743145); type: functional
[14] = cytotoxicity in OV-90 ovarian cancer cells, dose response, PAX8 inhibitor project, cell-based, plate reader, dry powder, SA8 (AID 743149); type: functional
[15] = cytotoxicity dependent on PAX8, dose response, cell-based, plate reader, dry powder (AID 743049); type: functional
[16] = inhibitors of intracellular T. cruzi replication, confirmation, NIH3T3 host cells, beta-gal luminescence (AID 2044); type: functional, cell-based;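 further: intracellular parasites grown in NIH/3T3 mouse fibroblasts as host cells; luminescent beta-galactosidase reporter signal from transgenic T. cruzi replicating inside host cells; inhibitors lower the luminescence signal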
[17] = cytotoxicity toward NIH3T3 fibroblasts, dose response, counter-screen, cell-based, ATP luminescence, mouse fibroblasts (AID 2010); type: functional;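 further: cells exposed to compound for about 90 hours before reading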
[18] = target: Nonstructural protein 1 (Influenza A virus, UniProt Q194T2); type: functional, Influenza A virus (A/California/07/2009(H1N1))
[19] = system: INS1; assay: beta cell apoptosis inhibitors, cytokine rescue, dose response, luminescence, retest (AID 449756); type: functional, cell-based; conditions: Rattus norvegicus;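 further: cell death triggered by IL-1 beta plus TNF-alpha plus IFN-gamma mixture; protective hits raise ATP signal compared with cytokine alone wells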
[20] = Shn3 3'UTR reporter inhibitors, dose response, cell-based, Clone20 osteoblasts, firefly luciferase, cherry-picked (AID 624132); type: functional;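 further: firefly luciferase luminescence from reporter carrying the Shn3 3'UTR in osteoblasts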
[21] = HepG2 cell cytotoxicity, dose response, cytotoxicity control for Shn3 inhibitor project, CellTiter-Glo, cherry-picked (AID 624134); type: functional, cell-based
[22] = control 3'UTR Renilla luciferase suppression, dose response, counter-screen for Shn3 inhibitor project, cell-based, Clone20-Shn3RL, cherry-picked (AID 624133); type: functional
[23] = target: Protein S100-A4 (Homo sapiens, UniProt P26447); assay: S100A4-myosin IIA binding inhibitor potency, dose response, biochemical, fluorescence polarization, cherry-picked hits (AID 687001); type: functional
[24] = target: Long-chain-fatty-acid--AMP ligase FadD28 (Mycobacterium tuberculosis, UniProt P9WQ59); assay: Fluorescence polarization aasay to screen for inhibitors that compete for the binding of FadD28 to a bisubstrate Measured in Biochemical System Using Plate Reader - 2147-01_Inhibitor_Dose_CherryPick_Activity.; type: functional, Mycobacterium tuberculosis H37Rv
[25] = target: Disintegrin and metalloproteinase domain-containing protein 17 (Homo sapiens, UniProt P78536); assay: exosite inhibitors of ADAM17, dose response, biochemical (AID 743260)
[26] = ADAM10 protease inhibitors, dose response, selectivity assay for ADAM17 exosite inhibitor project, biochemical, FRET peptide substrate, recombinant human ADAM10 (AID 743259);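 further: ADAM10 enzyme cleaving a FRET peptide substrate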
[27] = system: HEK293; assay: HEK293T cell cytotoxicity, dose response, cytotoxicity control, ATP luminescence, cherry-pick samples (AID 687005); type: functional, cell-based; conditions: Homo sapiens;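 further: cells exposed to compound for 48 hours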
[28] = HEK293 Cytotoxicity Assay Measured in Cell-Based System Using Plate Reader - 7071-01_Inhibitor_Dose_CherryPick_Activity_Set2.; type: functional
[29] = NIH-3T3 fibroblast cytotoxicity, dose response, cytotoxicity control, cell-based, fluorescence, Alamar Blue, secondary assay (AID 2327); type: functional;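 further: NIH-3T3 mouse fibroblasts cultured with fluconazole at 8 µg/mL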
[30] = C. albicans growth with fluconazole, confirmation, fluorescence, retest (AID 2467); type: functional, cell-based
[31] = HeLa cell cytotoxicity, dose response, cytotoxicity control for MgcRacGAP inhibitor project (AID 624300); type: functional
[32] = target: T2, Rac GTPase-activating protein 1 (Homo sapiens, UniProt Q9H0H5); assay: MgcRacGAP GTPase-activating activity inhibitors, confirmation, biochemical, ADP Hunter fluorescence, primary and confirmatory (AID 624330); type: functional
T2 sequence (Q9H0H5 whole entry): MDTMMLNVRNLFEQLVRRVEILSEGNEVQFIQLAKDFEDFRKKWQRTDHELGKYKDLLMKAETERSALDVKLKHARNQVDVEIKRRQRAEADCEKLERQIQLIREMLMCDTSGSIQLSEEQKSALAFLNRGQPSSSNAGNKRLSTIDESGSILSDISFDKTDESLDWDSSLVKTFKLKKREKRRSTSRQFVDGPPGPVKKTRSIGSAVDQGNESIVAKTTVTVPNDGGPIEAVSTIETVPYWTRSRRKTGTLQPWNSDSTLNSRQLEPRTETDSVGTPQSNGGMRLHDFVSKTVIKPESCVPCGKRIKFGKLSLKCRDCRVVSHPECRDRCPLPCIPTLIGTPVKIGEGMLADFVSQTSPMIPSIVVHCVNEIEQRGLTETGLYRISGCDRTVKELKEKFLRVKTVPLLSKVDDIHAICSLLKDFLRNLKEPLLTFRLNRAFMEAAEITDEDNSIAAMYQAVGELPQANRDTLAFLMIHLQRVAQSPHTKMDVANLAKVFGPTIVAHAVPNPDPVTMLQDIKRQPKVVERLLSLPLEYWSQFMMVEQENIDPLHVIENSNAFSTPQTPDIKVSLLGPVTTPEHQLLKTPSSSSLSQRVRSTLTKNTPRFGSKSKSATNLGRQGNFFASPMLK

[33] = HepG2 cell cytotoxicity, dose response, cytotoxicity control, ATP luminescence, cherry-pick, set 6 (AID 1053125); type: functional, cell-based
[34] = cells; conditions: A549
[35] = cells; conditions: HEK293
[36] = target: SWI/SNF-related matrix-associated actin-dependent regulator of chromatin subfamily A member 2 (Homo sapiens, UniProt P51531); assay: Luminescence-based cell-based high throughput dose response assay to identify activators of the function of SWI/SNF related, matrix associated, actin dependent regulator of chromatin, subfamily a, member 2 (SMARCA2, BRM).; type: functional
[37] = Counterscreen for activators of the function of SWI/SNF related, matrix associated, actin dependent regulator of chromatin, subfamily a, member 2 (SMARCA2, BRM): Luminescence-based cell-based high throughput dose response assay to identify non-selective compounds using the VP16 reporter assay.; type: functional

T1 sequence (P11940 whole entry): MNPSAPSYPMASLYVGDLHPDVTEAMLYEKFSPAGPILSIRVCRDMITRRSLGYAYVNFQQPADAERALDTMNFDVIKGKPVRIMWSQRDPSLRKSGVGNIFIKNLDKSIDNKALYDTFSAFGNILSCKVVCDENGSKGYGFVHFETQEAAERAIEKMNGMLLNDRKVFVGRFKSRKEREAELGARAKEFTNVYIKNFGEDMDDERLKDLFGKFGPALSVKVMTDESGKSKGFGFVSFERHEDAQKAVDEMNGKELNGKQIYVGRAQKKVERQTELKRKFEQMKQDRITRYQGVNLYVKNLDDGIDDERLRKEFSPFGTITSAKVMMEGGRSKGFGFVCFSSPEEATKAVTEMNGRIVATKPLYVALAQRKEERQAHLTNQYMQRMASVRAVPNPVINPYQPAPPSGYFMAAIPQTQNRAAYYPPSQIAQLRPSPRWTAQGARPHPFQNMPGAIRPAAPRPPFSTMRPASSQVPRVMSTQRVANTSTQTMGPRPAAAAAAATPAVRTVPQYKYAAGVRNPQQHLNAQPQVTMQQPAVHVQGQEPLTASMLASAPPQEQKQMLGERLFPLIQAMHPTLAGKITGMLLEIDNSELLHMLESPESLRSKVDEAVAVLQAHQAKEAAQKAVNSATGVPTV
Paired box protein Pax-8, sequence (Q06710 whole entry): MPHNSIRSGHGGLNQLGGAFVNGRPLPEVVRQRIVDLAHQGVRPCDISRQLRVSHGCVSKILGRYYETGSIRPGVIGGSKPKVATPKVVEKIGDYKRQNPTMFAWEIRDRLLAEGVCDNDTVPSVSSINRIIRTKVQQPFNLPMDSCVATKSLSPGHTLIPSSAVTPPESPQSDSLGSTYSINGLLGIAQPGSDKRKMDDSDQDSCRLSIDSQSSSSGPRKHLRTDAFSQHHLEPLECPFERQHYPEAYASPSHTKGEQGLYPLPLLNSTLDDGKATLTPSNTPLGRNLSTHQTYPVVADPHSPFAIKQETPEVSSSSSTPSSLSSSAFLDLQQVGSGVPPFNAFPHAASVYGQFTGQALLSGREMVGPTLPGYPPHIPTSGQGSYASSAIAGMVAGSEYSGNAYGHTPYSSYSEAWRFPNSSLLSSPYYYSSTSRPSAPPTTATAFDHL
Nonstructural protein 1, sequence (Q194T2 whole entry): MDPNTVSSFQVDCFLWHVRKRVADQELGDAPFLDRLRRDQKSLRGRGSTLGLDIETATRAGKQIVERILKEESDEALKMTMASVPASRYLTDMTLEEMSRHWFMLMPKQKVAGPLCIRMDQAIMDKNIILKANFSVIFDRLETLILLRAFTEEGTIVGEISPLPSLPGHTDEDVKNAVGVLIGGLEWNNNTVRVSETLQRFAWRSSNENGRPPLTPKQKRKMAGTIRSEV
SWI/SNF-related matrix-associated actin-dependent regulator of chromatin subfamily A member 2, sequence (P51531 whole entry): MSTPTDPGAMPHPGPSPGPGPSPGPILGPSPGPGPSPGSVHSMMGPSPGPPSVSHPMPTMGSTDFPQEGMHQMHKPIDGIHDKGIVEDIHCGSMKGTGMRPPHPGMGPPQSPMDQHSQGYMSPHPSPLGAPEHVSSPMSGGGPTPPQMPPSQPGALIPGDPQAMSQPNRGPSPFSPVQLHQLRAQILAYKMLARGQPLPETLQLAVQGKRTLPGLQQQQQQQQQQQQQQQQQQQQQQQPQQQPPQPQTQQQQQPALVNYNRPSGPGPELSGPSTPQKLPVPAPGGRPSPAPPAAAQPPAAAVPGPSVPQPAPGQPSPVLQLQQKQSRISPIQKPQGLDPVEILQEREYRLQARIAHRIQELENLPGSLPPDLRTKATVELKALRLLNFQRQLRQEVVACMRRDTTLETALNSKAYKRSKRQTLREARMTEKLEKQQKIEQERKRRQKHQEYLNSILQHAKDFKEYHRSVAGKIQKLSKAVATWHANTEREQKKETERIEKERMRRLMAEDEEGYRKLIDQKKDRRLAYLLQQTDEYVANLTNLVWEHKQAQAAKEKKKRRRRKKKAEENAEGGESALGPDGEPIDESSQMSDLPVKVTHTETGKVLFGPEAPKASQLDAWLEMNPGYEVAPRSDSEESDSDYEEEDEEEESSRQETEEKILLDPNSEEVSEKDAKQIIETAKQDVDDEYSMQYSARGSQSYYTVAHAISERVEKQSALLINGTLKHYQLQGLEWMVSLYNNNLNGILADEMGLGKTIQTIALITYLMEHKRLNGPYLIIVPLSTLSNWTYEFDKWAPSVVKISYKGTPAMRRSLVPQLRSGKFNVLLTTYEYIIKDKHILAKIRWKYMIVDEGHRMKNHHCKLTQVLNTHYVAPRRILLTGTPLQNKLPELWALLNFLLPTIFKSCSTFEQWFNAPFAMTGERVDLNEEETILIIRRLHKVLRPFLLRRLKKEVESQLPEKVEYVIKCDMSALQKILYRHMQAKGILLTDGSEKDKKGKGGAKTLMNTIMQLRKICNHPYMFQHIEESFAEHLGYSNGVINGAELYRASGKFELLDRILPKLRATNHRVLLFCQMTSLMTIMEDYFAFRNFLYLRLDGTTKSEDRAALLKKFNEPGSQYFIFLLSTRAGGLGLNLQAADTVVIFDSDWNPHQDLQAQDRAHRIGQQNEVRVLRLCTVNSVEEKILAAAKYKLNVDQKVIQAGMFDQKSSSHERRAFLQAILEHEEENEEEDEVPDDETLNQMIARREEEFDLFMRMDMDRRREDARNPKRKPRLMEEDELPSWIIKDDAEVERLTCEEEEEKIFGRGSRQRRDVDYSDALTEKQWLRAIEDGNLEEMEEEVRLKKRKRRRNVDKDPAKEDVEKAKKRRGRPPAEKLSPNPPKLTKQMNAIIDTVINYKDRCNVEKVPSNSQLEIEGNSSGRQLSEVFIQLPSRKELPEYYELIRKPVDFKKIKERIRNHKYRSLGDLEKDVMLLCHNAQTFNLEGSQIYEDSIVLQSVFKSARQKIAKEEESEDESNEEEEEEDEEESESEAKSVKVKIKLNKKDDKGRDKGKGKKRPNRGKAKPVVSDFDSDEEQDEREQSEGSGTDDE
Disintegrin and metalloproteinase domain-containing protein 17, sequence (P78536 whole entry, the tested form may be a part): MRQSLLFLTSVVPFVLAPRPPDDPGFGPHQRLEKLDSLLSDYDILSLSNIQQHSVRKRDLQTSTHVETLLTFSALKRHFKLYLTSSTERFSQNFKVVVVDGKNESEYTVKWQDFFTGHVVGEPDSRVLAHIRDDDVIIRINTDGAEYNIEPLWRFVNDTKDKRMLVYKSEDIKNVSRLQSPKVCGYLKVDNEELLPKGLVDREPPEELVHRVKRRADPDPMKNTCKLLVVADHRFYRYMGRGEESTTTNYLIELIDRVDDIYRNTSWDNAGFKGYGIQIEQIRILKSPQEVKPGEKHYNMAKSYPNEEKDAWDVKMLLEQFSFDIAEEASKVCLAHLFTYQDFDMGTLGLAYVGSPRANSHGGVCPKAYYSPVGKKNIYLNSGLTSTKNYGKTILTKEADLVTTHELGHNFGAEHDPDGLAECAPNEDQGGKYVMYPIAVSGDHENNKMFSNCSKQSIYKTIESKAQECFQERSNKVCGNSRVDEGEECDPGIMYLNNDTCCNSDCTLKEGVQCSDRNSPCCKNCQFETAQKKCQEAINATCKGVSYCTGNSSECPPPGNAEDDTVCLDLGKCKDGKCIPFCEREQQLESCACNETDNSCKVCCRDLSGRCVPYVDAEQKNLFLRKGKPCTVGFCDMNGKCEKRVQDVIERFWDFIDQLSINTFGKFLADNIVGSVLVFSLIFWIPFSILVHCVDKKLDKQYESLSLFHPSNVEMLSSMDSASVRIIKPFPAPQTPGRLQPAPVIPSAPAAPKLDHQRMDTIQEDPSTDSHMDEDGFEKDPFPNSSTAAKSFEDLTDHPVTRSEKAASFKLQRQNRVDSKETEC
Protein S100-A4, sequence (P26447 whole entry): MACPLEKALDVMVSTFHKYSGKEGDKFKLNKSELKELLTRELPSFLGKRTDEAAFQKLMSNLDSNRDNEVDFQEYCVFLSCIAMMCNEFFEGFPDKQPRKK
Fructose-bisphosphate aldolase, sequence (P9WQA3 whole entry): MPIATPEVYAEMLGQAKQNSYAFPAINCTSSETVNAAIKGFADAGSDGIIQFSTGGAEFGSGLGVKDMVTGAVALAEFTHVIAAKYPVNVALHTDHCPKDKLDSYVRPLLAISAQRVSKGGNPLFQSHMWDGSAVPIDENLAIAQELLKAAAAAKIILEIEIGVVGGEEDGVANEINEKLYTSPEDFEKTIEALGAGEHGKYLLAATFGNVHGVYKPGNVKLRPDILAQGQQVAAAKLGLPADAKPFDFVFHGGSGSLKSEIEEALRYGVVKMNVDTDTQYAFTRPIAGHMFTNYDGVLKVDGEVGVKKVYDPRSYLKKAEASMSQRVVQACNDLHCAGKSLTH
Long-chain-fatty-acid--AMP ligase FadD28, sequence (P9WQ59 whole entry, the tested form may be a part): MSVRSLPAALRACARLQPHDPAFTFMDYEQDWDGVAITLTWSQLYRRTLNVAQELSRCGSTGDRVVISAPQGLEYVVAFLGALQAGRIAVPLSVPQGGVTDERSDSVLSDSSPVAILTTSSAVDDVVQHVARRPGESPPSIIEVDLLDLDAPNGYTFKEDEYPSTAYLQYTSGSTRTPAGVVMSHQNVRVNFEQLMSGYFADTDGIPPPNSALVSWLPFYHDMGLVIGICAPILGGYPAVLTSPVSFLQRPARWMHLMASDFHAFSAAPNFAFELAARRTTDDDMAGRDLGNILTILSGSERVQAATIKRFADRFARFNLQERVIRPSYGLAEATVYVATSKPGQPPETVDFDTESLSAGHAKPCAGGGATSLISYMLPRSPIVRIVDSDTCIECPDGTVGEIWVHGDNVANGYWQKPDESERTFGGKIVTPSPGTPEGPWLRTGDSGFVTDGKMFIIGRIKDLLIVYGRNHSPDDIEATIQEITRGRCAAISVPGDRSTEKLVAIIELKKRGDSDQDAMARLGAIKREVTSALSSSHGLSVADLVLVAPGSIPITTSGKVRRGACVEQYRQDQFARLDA

O=C(CSc1nc2ccccc2o1)c1cc2ccccc2oc1=O
EC50 [1]: > 50 µM (active) | IC50 [2]: > 50 µM (inconclusive) | IC50 [3]: > 66 µM (inactive) | IC50 [4]: > 66 µM (inactive) | IC50 [5]: > 10 µM (inactive)

COC(=O)c1ccc(NCc2cc(O)ccc2O)cc1O
AC50 [6]: 26.3 µM (active)

Cc1nc2sc(C(c3ccco3)N3CCN(C(c4ccccc4)c4ccccc4)CC3)c(O)n2n1 (stereo not drawn)
AC50 [7]: 5.25 µM (active) | AC50 [8]: 62.5 µM (active) | AC50 [9]: 69 µM (active) | AC50 [10]: 40.9 µM (active) | AC50 [11]: > 100 µM (inactive) | AC50 [12]: 17 µM (active) | AC50 [13]: 45.6 µM (active) | AC50 [14]: 47 µM (active) | AC50 [15]: 8.59 µM (active)

CN1/C(=C\C=C2/SC(=S)NC2=O)C(C)(C)c2ccccc21
EC50 [16]: 0.981 µM (active) | EC50 [17]: 7.49 µM (active) | IC50 [18]: 38.8 µM (active) | AC50 [19]: 2.87 µM (active) | AC50 [20]: 2.6 µM (active) | AC50 [21]: 38.6 µM (active) | AC50 [22]: 1.42 µM (active) | AC50 [23]: 0.819 µM (active)

CCc1cccc2c(C(=O)CSc3nncn3-c3ccc(OC)cc3)c[nH]c12
AC50 [24]: > 100 µM (inactive)

Cc1cc(C)n(CCc2nc(-c3ccc(C(C)(C)C)cc3)cs2)n1
IC50 [25]: > 69.5 µM (inactive) | IC50 [26]: 36.5 µM (inactive)

Cc1cccc(C)c1NC(=O)C1CCCN1C(=O)OC(C)(C)C (stereo not drawn)
AC50 [27]: 50.8 µM (active) | AC50 [28]: 50.8 µM (active)

COc1cc(/C=C(\C#N)c2nc3ccccc3[nH]2)ccc1O
EC50 [29]: 49.9 µM (active) | EC50 [30]: 1.41 µM (active) | CC50 [31]: 99.9 µM (active) | IC50 [32]: 15.9 µM (active)

O=C(NCc1cc(C(F)(F)F)ccc1Cl)c1cccc2c1C(=O)c1ccc(Cl)cc1S2(=O)=O
AC50 [33]: > 52 µM (inactive) | AC50 [34]: 37.6 µM (active) | AC50 [35]: > 52 µM (inactive)

Nc1ccc2c(c1)C(=O)c1cc(N)c(Cl)cc1-2
IC50 [32]: 22.1 µM (active) | EC50 [36]: > 91.2 µM (inactive) | EC50 [37]: > 91.2 µM (inactive)
